Assay results as given in the supplement of paper PMC11061612.

How the values were obtained:
Experiment in all cases: combination Emax (second highest fraction inhibited in the dose matrix, 72 h); higher = more inhibition; extreme values may be limits of the assay
[1] = test system: L-363 (Plasma Cell Myeloma)
Procedure, shortened: (§1)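 After 24 hours at 37°C and 5% CO2 in 1536-well plates, cells in DMEM/F12 or RPMI plus 10% FBS received two-drug dose matrices for 72 hours. Viability came from CellTiter-Glo 2.0 luminescence and was scaled as inhibition, anchored at 0 by vehicle wells and at 1 by blank wells. Combination Emax is taken as the second-highest inhibition in the matrix, and Bliss excess as the observed combination effect less EA + EB − EA·EB, with EA and EB the single-agent effects.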

[2] = test system: SW1463 (Colorectal Carcinoma)
Procedure, shortened: as §1

SK-N-DZ (Neuroblastoma) = test system: SK-N-DZ (Neuroblastoma)
Procedure, shortened: as §1

[3] = test system: COR-L105 (Lung Adenocarcinoma)
Procedure, shortened: as §1

[4] = test system: C2BBe1 (Colorectal Carcinoma)
Procedure, shortened: as §1

[5] = test system: OCI-M1 (Acute Myeloid Leukemia)
Procedure, shortened: as §1

[6] = test system: NCI-H2023 (Non-Small Cell Lung Carcinoma)
Procedure, shortened: as §1

[7] = test system: JJN-3 (Plasma Cell Myeloma)
Procedure, shortened: as §1

[8] = test system: TOV-21G (Ovarian Carcinoma)
Procedure, shortened: as §1

[9] = test system: TK (B-Cell Non-Hodgkin's Lymphoma)
Procedure, shortened: as §1

[10] = test system: IGROV-1 (Ovarian Carcinoma)
Procedure, shortened: as §1

[11] = test system: NCI-H1944 (Lung Adenocarcinoma)
Procedure, shortened: as §1

GCIY (Gastric Carcinoma) = test system: GCIY (Gastric Carcinoma)
Procedure, shortened: as §1

[12] = test system: MRK-nu-1 (Breast Carcinoma)
Procedure, shortened: as §1

[13] = test system: NCI-H835 (Other Solid Carcinomas)
Procedure, shortened: as §1

NCI-H2452 (Mesothelioma) = test system: NCI-H2452 (Mesothelioma)
Procedure, shortened: as §1

DK-MG (Glioblastoma) = test system: DK-MG (Glioblastoma)
Procedure, shortened: as §1

[14] = test system: NCI-H1975 (Lung Adenocarcinoma)
Procedure, shortened: as §1

[15] = test system: CAL-85-1 (Breast Carcinoma)
Procedure, shortened: as §1

[16] = test system: NCI-H2009 (Lung Adenocarcinoma)
Procedure, shortened: as §1

| Structure (SMILES) | combination Emax [1] | combination Emax [2] | combination Emax (SK-N-DZ (Neuroblastoma)) | combination Emax [3] | combination Emax [4] | combination Emax [5] | combination Emax [6] | combination Emax [7] | combination Emax [8] | combination Emax [9] | combination Emax [10] | combination Emax [11] | combination Emax (GCIY (Gastric Carcinoma)) | combination Emax [12] | combination Emax [13] | combination Emax (NCI-H2452 (Mesothelioma)) | combination Emax (DK-MG (Glioblastoma)) | combination Emax [14] | combination Emax [15] | combination Emax [16] |
| --- | --- | --- | --- | --- | --- | --- | --- | --- | --- | --- | --- | --- | --- | --- | --- | --- | --- | --- | --- | --- |
| C[C@@H](c1ccc2nccn2c1)n1nnc2ncc(-c3cnn(C)c3)nc21 [Savolitinib] + CC1(C)CCC(CN2CCN(c3ccc(C(=O)NS(=O)(=O)c4ccc(NCC5CCOCC5)c([N+](=O)[O-])c4)c(Oc4cnc5[nH]ccc5c4)c3)CC2)=C(c2ccc(Cl)cc2)C1 [Venetoclax] (first compound max 1 µM, 7x7, partner max 1 µM) | 0.0979 | 0.247 | 0.173 | 0.186 | 0.0814 | 0.102 | 0.261 | 0.234 | 0.116 | 0.907 | 0.152 | 0.128 | 0.213 | 0.449 | 0.148 | 0.174 | 0.352 | 0.126 | 0.146 | 0.204 |
| C[C@@H](c1ccc2nccn2c1)n1nnc2ncc(-c3cnn(C)c3)nc21 [Savolitinib] + Cc1c2c(nn1C)CSCc1cc(n(C)n1)CSc1cc(c3ccccc3c1)OCCCc1c(C(=O)O)n(C)c3c-2c(Cl)ccc13 [AZD5991] (first compound max 1 µM, 7x7, partner max 1 µM) | 0.992 | 0.255 | 0.255 | 0.165 | 0.134 | 0.186 | 0.247 | 0.992 | 0.174 | 0.129 | 0.157 | 0.184 | 0.176 | 1 | 0.177 | 0.205 | 0.417 | 0.146 | 0.0993 | 0.217 |
